From US20140011799A1 (Bristol-Myers Squibb Company, priority 2012, published 2014)

Experiments:
hepatic lipase (HL) = biological target: T1, hepatic lipase (HL) (Homo sapiens, UniProt P11150); experiment: Hepatic lipase (HL) enzymatic assay, fluorescent substrate A10070 in DMPG vesicles; assay type: biochemical; conditions: HL partially purified from conditioned media of COS cells; compound preincubated 30 min at 37° C; read-out: HL IC50
T1 construct: made in house; host or cells: COS cells (conditioned medium, partially purified)
T1 sequence (P11150 23-499): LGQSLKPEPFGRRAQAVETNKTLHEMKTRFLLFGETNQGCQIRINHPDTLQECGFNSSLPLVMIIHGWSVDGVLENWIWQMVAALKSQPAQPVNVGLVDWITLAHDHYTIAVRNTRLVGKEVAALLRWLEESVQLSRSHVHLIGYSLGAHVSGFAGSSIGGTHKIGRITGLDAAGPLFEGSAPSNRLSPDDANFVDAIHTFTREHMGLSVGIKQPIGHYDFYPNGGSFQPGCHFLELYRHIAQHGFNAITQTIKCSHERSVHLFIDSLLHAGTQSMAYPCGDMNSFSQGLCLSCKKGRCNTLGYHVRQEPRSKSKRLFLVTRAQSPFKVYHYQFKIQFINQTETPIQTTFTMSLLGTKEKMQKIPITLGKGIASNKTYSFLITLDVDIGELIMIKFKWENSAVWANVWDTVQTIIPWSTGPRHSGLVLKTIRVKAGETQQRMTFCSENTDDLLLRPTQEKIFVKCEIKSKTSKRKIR
Method in brief: (§1)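 Compounds were preincubated with enzyme for 30 min at 37° C before FRET-substrate vesicles (A10070 in DMPG, 0.11 mole fraction) were added. Reaction rates were obtained from the 300–900 sec slope of fluorescence at 490/530 nm.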

Endothelial lipase (EL) = biological target: T2, Endothelial lipase (EL) (Homo sapiens, UniProt Q9Y5X9); experiment: Endothelial lipase (EL) enzymatic assay, fluorescent substrate A10070 in DMPG vesicles; assay type: biochemical; conditions: EL from conditioned media of HT-1080 cells; compound preincubated 30 min at 37° C; read-out: EL IC50
T2 construct: HT-1080 cells that were transformed using RAGE technology (Athersys) to overexpress endogenous EL; endogenous in cells; conditioned medium used
T2 sequence (Q9Y5X9 21-500): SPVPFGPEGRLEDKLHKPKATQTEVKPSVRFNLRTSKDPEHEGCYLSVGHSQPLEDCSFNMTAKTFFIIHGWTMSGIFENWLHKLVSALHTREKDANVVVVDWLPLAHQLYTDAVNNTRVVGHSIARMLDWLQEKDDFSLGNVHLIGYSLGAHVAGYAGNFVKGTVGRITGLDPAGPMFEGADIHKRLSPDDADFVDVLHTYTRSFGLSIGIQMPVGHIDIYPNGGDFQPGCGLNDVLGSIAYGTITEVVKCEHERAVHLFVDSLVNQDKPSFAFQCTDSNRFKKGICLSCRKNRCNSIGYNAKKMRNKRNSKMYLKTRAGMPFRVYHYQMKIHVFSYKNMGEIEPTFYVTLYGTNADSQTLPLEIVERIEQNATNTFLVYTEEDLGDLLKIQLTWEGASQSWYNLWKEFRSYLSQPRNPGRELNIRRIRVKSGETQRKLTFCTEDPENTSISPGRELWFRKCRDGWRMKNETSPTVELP
Method in brief: as §1

Row | SMILES | IC50 (hepatic lipase (HL)) | IC50 (Endothelial lipase (EL))
1 | CS(=O)(=O)C(c1nnc(CNS(N)(=O)=O)o1)c1nc2ccc(-c3cccc(C(=O)Nc4nnc(C(F)(F)F)o4)c3)cc2s1 (stereo not shown) [Example 253, 3-{2-[methanesulfonyl({5-[(sulfamoylamino)methyl]-1,3,4-oxadiazol-2-yl})methyl]-1,3-benzothiazol-6-yl}-N-[5-(trifluoromethyl)-1,3,4-oxadiazol-2-yl] benzamide] | 0.062 µM | 0.007 µM
2 | CC(O)CNC(=O)Cc1nnc(C(c2nc3ccc(-c4ccc(C(=O)N5CCOCC5)cc4)cc3s2)S(=O)(=O)Cc2ccccc2)o1 (stereo not shown) [Example 179, 2-(5-((benzylsulfonyl)(6-(4-(4-morpholinylcarbonyl)phenyl)-1,3-benzothiazol-2-yl)methyl)-1,3,4-oxadiazol-2-yl)-N-(2-hydroxypropyl) acetamide] | 0.518 µM | < 0.01 µM
3 | COCCS(=O)(=O)C(c1nnc(CNS(N)(=O)=O)o1)c1nc2ccc(-c3cc(F)cc(Cl)c3)cc2s1 (stereo not shown) [Example 151, N-((5-((6-(3-chloro-5-fluorophenyl)-1,3-benzothiazol-2-yl)((2-methoxyethyl)sulfonyl)methyl)-1,3,4-oxadiazol-2-yl)methyl)sulfamide] | < 0.01 µM | < 0.01 µM
4 | CS(=O)(=O)C(c1nnc(CNS(N)(=O)=O)o1)c1nc2ccc(-c3cccc(C(=O)NCCO)c3)cc2s1 (stereo not shown) [Example 257, N-(2-hydroxyethyl)-3-{2-[methanesulfonyl({5-[(sulfamoylamino)methyl]-1,3,4-oxadiazol-2-yl})methyl]-1,3-benzothiazol-6-yl}benzamide] | 0.029 µM | 0.01 µM
5 | NS(=O)(=O)NCc1nnc(C(c2nc3ccc(-c4cncnc4)cc3s2)S(=O)(=O)Cc2ccccc2)o1 (stereo not shown) [Example 125, N-((5-((benzylsulfonyl)(6-(5-pyrimidinyl)-1,3-benzothiazol-2-yl)methyl)-1,3,4-oxadiazol-2-yl)methyl) sulfamide] | 0.103 µM | < 0.01 µM
6 | CC(O)CCNC(=O)Cc1nnc(C(c2nc3ccc(-c4ccc(C(=O)N5CCOCC5)cc4)cc3s2)S(=O)(=O)Cc2ccccc2)o1 (stereo not shown) [Example 177, 2-(5-((benzylsulfonyl)(6-(4-(4-morpholinylcarbonyl)phenyl)-1,3-benzothiazol-2-yl)methyl)-1,3,4-oxadiazol-2-yl)-N-(3-hydroxybutyl) acetamide] | 0.591 µM | 0.014 µM
7 | NS(=O)(=O)NCc1nnc(C(c2nc3ccc(C(=O)N4CCOCC4)cc3s2)S(=O)(=O)Cc2ccccc2)o1 (stereo not shown) [Example 189, N-((5-((Benzylsulfonyl)(6-(4-morpholinylcarbonyl)-1,3-benzothiazol-2-yl)methyl)-1,3,4-oxadiazol-2-yl)methyl)sulfamide] | 2.37 µM | 0.013 µM
8 | CN1CCN(C(=O)c2cccc(-c3ccc4nc(C(c5nnc(CNS(N)(=O)=O)o5)S(=O)(=O)CCC(F)(F)F)sc4c3)c2)CC1 (stereo not shown) [Example 201, N-((5-((6-(3-((4-methyl-1-piperazinyl)carbonyl)phenyl)-1,3-benzothiazol-2-yl)((3,3,3-trifluoropropyl)sulfonyl)methyl)-1,3,4-oxadiazol-2-yl)methyl)sulfamide] | 0.365 µM | < 0.01 µM
9 | CS(=O)(=O)C(c1nnc(C[C@@H]2NS(=O)(=O)NC2=O)o1)c1nc2cc(F)c(-c3ccccc3)cc2s1 (stereo partly drawn) [Example 168, (4S)-4-((5-((5-fluoro-6-phenyl-1,3-benzothiazol-2-yl)(methylsulfonyl)methyl)-1,3,4-oxadiazol-2-yl)methyl)-1,2,5-thiadiazolidin-3-one 1,1-dioxide] | 0.019 µM | < 0.01 µM
10 | NS(=O)(=O)NCc1nnc(C(c2nc3ccc(-c4ccc(F)nc4)cc3s2)S(=O)(=O)Cc2ccc(OC(F)(F)F)cc2)o1 (stereo not shown) [Example 239, N-[(5-{[6-(6-fluoropyridin-3-yl)-1,3-benzothiazol-2-yl] [4-(trifluoromethoxy)phenyl]methanesulfonylmethyl}-1,3,4-oxadiazol-2-yl)methyl] aminosulfonamide] | 0.009 µM | 0.004 µM
11 | COC(=O)NCCS(=O)(=O)C(c1nnc(CNS(N)(=O)=O)o1)c1nc2ccc(-c3ccccc3)cc2s1 (stereo not shown) [Example 122, methyl (2-(((6-phenyl-1,3-benzothiazol-2-yl)(5-((sulfamoylamino)methyl)-1,3,4-oxadiazol-2-yl)methyl)sulfonyl)ethyl)carbamate] | < 0.01 µM | < 0.01 µM
12 | CN1CCN(C(=O)c2cccc(-c3ccc4nc(C(c5nnc(CNS(N)(=O)=O)o5)S(=O)(=O)Cc5ccccc5)sc4c3)c2)CC1 (stereo not shown) [Example 198, N-((5-((benzylsulfonyl)(6-(3-((4-methyl-1-piperazinyl)carbonyl)phenyl)-1,3-benzothiazol-2-yl)methyl)-1,3,4-oxadiazol-2-yl)methyl)sulfamide] | 9.18 µM | < 0.01 µM

Further lines, results first:

Row | IC50 (hepatic lipase (HL)) | IC50 (Endothelial lipase (EL)) | SMILES
13 | 1.34 µM | < 0.01 µM | O=C1NC(=O)C(Cc2nnc(C(c3nc4ccc(-c5ccc(C(=O)N6CCOCC6)cc5)cc4s3)S(=O)(=O)CCN3CCOCC3)o2)S1 (stereo not shown) [Example 106, 5-((5-((6-(4-(4-morpholinylcarbonyl)phenyl)-1,3-benzothiazol-2-yl)((2-(4-morpholinyl)ethyl)sulfonyl)methyl)-1,3,4-oxadiazol-2-yl)methyl)-1,3-thiazolidine-2,4-dione]
14 | 0.365 µM | 0.009 µM | CC1(Cc2nnc(C(c3nc4ccc(-c5cccc(C(=O)N6CCOCC6)c5)cc4s3)S(C)(=O)=O)o2)NC(=O)NC1=O (stereo not shown) [Example 210, 5-({5-[methanesulfonyl({6-[3-(morpholine-4-carbonyl)phenyl]-1,3-benzothiazol-2-yl})methyl]-1,3,4-oxadiazol-2-yl}methyl)-5-methyl-imidazolidine-2,4-dione]
15 | 0.262 µM | 0.01 µM | CNC(=O)c1cccc(-c2ccc3nc(C(c4nnc(CC5(C)NC(=O)NC5=O)o4)S(C)(=O)=O)sc3c2)c1 (stereo not shown) [Example 218, 3-{2-[methanesulfonyl({5-[(4-methyl-2,5-dioxoimidazolidin-4-yl)methyl]-1,3,4-oxadiazol-2-yl})methyl]-1,3-benzothiazol-6-yl}-N-methylbenzamide]
16 | 0.025 µM | 0.001 µM | CN(C(=O)c1cccc(-c2ccc3nc(C(c4nnc(CC5(C)NC(=O)NC5=O)o4)S(C)(=O)=O)sc3c2)c1)C1CC1 (stereo not shown) [Example 221, N-cyclopropyl-3-{2-[methanesulfonyl({5-[(4-methyl-2,5-dioxoimidazolidin-4-yl)methyl]-1,3,4-oxadiazol-2-yl})methyl]-1,3-benzothiazol-6-yl}-N-methylbenzamide]
17 | 0.465 µM | 0.01 µM | CC(O)CCNC(=O)Cc1nnc(C(c2nc3ccc(-c4ccc(C(=O)N5CCOCC5)cc4)cc3s2)S(C)(=O)=O)o1 (stereo not shown) [Example 176, N-(3-hydroxybutyl)-2-(5-((methylsulfonyl)(6-(4-(4-morpholinylcarbonyl)phenyl)-1,3-benzothiazol-2-yl)methyl)-1,3,4-oxadiazol-2-yl)acetamide]
18 | 0.035 µM | < 0.01 µM | CS(=O)(=O)C(c1nnc(CNS(N)(=O)=O)o1)c1nc2ccc(-c3cccc(C(=O)N4CC(F)(F)C4)c3)cc2s1 (stereo not shown) [Example 202, N-((5-((6-(3-((3,3-difluoro-1-azetidinyl)carbonyl)phenyl)-1,3-benzothiazol-2-yl)(methylsulfonyl)methyl)-1,3,4-oxadiazol-2-yl)methyl)sulfamide]
19 | 0.575 µM | 0.002 µM | CO[C@@H]1CCN(C(=O)c2cccc(-c3ccc4nc(C(c5nnc(CC6(C)NC(=O)NC6=O)o5)S(C)(=O)=O)sc4c3)c2)C1 (stereo partly drawn) [Example 211, 5-({5-[methanesulfonyl(6-{3-[(3R)-3-methoxy-pyrrolidine-1-carbonyl]phenyl}-1,3-benzothiazol-2-yl)methyl]-1,3,4-oxadiazol-2-yl}methyl)-5-methyl-imidazolidine-2,4-dione]
20 | 0.089 µM | 0.012 µM | CCCOCCCNC(=O)Cc1nnc(C(c2nc3ccc(-c4ccc(C(=O)N5CCOCC5)cc4)cc3s2)S(C)(=O)=O)o1 (stereo not shown) [Example 175, 2-(5-((Methylsulfonyl)(6-(4-(4-morpholinylcarbonyl)phenyl)-1,3-benzothiazol-2-yl)methyl)-1,3,4-oxadiazol-2-yl)-N-(3-propoxypropyl)acetamide]
